Data reported in US20210085585A1, “A PERSONAL CARE COMPOSITION” (Conopco, Inc., d/b/a UNILEVER, priority 2017, published 2021).

Test system: co-cultures of HaCaT keratinocytes and neonatal primary human epidermal melanocytes
Test: Melanin content assay (cellular melanin content in keratinocyte-melanocyte co-cultures)
Format: cell-based
Settings: 72 h treatment, average % reduction in cellular melanin content; for inhibition at 10000 µM: single active at 10 mM
Description: Neonatal primary human epidermal melanocytes were sourced from Life Technologies. Melanocytes were maintained in Medium 254 supplemented with Human Melanocyte Growth Supplement-2 (MGM).
HaCaT keratinocytes were maintained in DMEM medium containing 10% heat inactivated foetal bovine serum. All media were also supplemented with 10 U/mL penicillin G and 0.1 mg/mL streptomycin sulphate. Both cell types were maintained at 37° C. in a humidified incubator with 5% CO2 atmosphere.
Maintenance and sub-culturing of cells were carried out as per the manufacturer's instructions. For setup of co-cultures, HaCaT keratinocytes and melanocytes, each 40,000 cells were mixed (1:1 ratio) in 1 mL of a 1:1 mix of MGM:GM (KGM: EpiLife Medium supplemented with Human Keratinocyte Growth Supplement) and seeded as such per well, in 12 well Nunc plates.
Actives were prepared in media and test concentrations were added to cells along with relevant controls 24 h post seeding. After 72 h of active treatment, cell viability (using calcein method) and measurement of cellular melanin content was determined as described below.
After calcein fluorescence readings were obtained, cells were drained and fresh 0.15 mL of 1N NaOH (in 10% DMSO) per well was added. Cells were lysed by resuspension and incubated (60° C. for 1 h). Then, 0.1 mL of this lysate was transferred to a fresh 384-well plate and OD was measured at 405 nm in a TECAN M1000 plate reader (estimate of relative melanin content).

Structure (SMILES)	inhibition at 100 µM (single active at 100 uM) [%]	inhibition at 1000 µM (single active at 1 mM) [%]	inhibition at 10000 µM [%]
O=C(O)CCN1CCCCC1 [1PP, 1-piperidinepropionic acid]	1	-5	0
NC(=O)c1cccnc1 [3-pyridinecarboxamide]			0
